Counter-ions that a name gives are not always drawn.
Legend:
[1] = target: T1, human muscarinic acetylcholine M3 receptor (Homo sapiens, UniProt P20309); assay: Muscarinic 3 receptor binding assay ([3H]NMS competition, SPA), pIC50; conditions: [3H]NMS 0.1 nM, CHO-K1 cell membranes expressing human M3 receptor
T1 construct: expressed in transfected cells; host or cells: CHO-K1 (Chinese Hamster Ovary) cell membranes
How it was run: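 Competition of [3H]NMS (0.1 nM, quarter Kd) binding to CHO-K1 membranes expressing human M3, SPA format, in 20 mM HEPES pH 7.4, 5 mM MgCl2, 0.1% BSA, 1% DMSO. Incubated 16 h at room temperature; non-specific binding with 1 μM atropine; pIC50 from specific binding.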

Adrenergic β2 = target: T2, Adrenergic β2 (Homo sapiens, UniProt P07550); assay: Adrenergic β2 mediated cAMP production in H292 cells (AlphaScreen), concentration response; assay type: cell-based; conditions: for EC50: 60 min, 300 μM rolipram, read-out: β2 pEC50 (converted); for β2 Intrinsic Activity: fraction relative to the maximum activity determined for formoterol
T2 construct: Adherent H292 cells are removed from tissue culture flasks by treatment with Accutase™ cell detachment solution; endogenous in cells; host or cells: H292 cells
How it was run: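 H292 cells seeded overnight, pretreated 10 min with rolipram (300 μM final), then exposed to compounds 60 min at room temperature in HBSS/10 mM HEPES pH 7.4/5 mM glucose, 1% DMSO. Lysate cAMP quantified by AlphaScreen against a standard curve; four-parameter fit gives pEC50 and intrinsic activity relative to formoterol maximum.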

T1 sequence (P20309 whole entry): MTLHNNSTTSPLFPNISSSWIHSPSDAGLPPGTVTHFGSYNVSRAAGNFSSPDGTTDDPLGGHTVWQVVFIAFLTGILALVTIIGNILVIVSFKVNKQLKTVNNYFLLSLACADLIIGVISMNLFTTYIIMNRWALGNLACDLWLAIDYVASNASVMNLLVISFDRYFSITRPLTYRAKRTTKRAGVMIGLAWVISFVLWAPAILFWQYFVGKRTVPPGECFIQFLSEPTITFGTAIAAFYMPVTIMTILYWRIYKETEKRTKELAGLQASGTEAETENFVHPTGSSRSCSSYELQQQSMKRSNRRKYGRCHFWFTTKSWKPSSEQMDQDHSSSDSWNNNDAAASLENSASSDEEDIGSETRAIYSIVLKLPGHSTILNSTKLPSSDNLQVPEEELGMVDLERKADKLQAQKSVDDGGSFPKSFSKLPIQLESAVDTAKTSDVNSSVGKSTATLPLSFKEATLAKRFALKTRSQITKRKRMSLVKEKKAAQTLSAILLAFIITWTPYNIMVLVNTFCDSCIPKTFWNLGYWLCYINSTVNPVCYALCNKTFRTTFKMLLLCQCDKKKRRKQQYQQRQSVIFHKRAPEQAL
T2 sequence (P07550 whole entry): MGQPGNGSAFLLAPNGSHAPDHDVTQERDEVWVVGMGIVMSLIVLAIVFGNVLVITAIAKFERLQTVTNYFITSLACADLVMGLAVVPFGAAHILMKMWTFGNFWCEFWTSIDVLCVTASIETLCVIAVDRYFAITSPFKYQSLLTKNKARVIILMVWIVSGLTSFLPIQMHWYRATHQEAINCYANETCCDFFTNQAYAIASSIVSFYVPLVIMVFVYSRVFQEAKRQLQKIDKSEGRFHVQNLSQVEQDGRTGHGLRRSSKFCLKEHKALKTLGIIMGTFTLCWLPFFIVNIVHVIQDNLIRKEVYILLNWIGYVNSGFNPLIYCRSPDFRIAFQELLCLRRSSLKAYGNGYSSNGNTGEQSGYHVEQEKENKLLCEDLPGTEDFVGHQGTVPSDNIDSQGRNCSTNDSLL

| SMILES | IC50 [1] | EC50 (Adrenergic β2) | β2 Intrinsic Activity (Adrenergic β2) |
| --- | --- | --- | --- |
| CC(C)c1nc(C(=O)N2CCOC3(CCN(Cc4cccc(CCOCCC(=O)N(CCNCCc5ccc(O)c6c5OCC(=O)N6)CC(F)(F)F)c4F)CC3)C2)cs1 [Example 79, ditrifluoroacetate] | 0.126 nM | 126 nM | 1.0 |
| CCN(CCNCCc1ccc(O)c2[nH]c(=O)sc12)C(=O)CCOCCc1ccc(CCN2CCC3(CC2)CN(C(=O)c2csc(C(C)C)n2)CCO3)s1 [Example 52, N-Ethyl-N-(2-(2-(4-hydroxy-2-oxo-2,3-dihydrobenzo[d]thiazol-7-yl)ethylamino)ethyl)-3-(2-(5-(2-(4-(2-isopropylthiazole-4-carbonyl)-1-oxa-4,9-diazaspiro[5.5]undecan-9-yl)ethyl)thiophen-2-yl)ethoxy)propanamide ditrifluoroacetate] | 1.58 nM | 12.6 nM | 0.9 |
| Cc1c(CCOCCC(=O)N(CCNCCc2ccc(O)c3c2OCC(=O)N3)C2CCCC2)cccc1CN1CCC2(CC1)CN(C(=O)c1csc(C(C)C)n1)CCO2 [Example 64, N-Cyclopentyl-N-(2-(2-(5-hydroxy-3-oxo-3,4-dihydro-2H-benzo[b][1,4]oxazin-8-yl)ethylamino)ethyl)-3-(3-((4-(2-isopropylthiazole-4-carbonyl)-1-oxa-4,9-diazaspiro[5.5]undecan-9-yl)methyl)-2-methylphenethoxy)propanamide ditrifluoroacetate] | 2.51 nM | 20 nM | 1.0 |
| CC(C)c1nc(C(=O)N2CCOC3(CCN(Cc4cccc(OCCCOCCC(=O)N(CCNCCc5ccc(O)c6c5OCC(=O)N6)C5CCCCC5)c4)CC3)C2)cs1 [Example 60, N-Cyclohexyl-N-(2-(2-(5-hydroxy-3-oxo-3,4-dihydro-2H-benzo[b][1,4]oxazin-8-yl)ethylamino)ethyl)-3-(3-(3-((4-(2-isopropylthiazole-4-carbonyl)-1-oxa-4,9-diazaspiro[5.5]undecan-9-yl)methyl)phenoxy)propoxy)propanamide ditrifluoroacetate] | 0.2 nM | 50.1 nM | 0.7 |
| CC(C)c1nc(C(=O)N2CCOC3(CCN(CCc4cccc(CCOCCC(=O)N(CCNCCc5ccc(O)c6c5OCC(=O)N6)C5CCCC5)c4)CC3)C2)cs1 [Example 39, N-Cyclopentyl-N-(2-(2-(5-hydroxy-3-oxo-3,4-dihydro-2H-benzo[b][1,4]oxazin-8-yl)ethylamino)ethyl)-3-(3-(2-(4-(2-isopropylthiazole-4-carbonyl)-1-oxa-4,9-diazaspiro[5.5]undecan-9-yl)ethyl)phenethoxy)propanamide ditrifluoroacetate] | 1 nM | 10 nM | 1.0 |
| CC(C)c1cc(C(=O)N2CCOC3(CCN(Cc4cccc(CCOCCC(=O)N(CCNCCc5ccc(O)c6c5OCC(=O)N6)C5CCCCC5)c4)CC3)C2)cs1 [Example 91, N-Cyclohexyl-N-(2-(2-(5-hydroxy-3-oxo-3,4-dihydro-2H-benzo[b][1,4]oxazin-8-yl)ethylamino)ethyl)-3-(3-((4-(5-isopropylthiophene-3-carbonyl)-1-oxa-4,9-diazaspiro[5.5]undecan-9-yl)methyl)phenethoxy)propanamide] | 0.2 nM | 251 nM | 1.2 |
| CC(C)c1nc(C(=O)N2CCOC3(CCN(Cc4cccc(CCCOCCC(=O)N(CCNCCc5ccc(O)c6c5OCC(=O)N6)C5CCCCC5)c4)CC3)C2)cs1 [Example 57, N-Cyclohexyl-N-(2-(2-(5-hydroxy-3-oxo-3,4-dihydro-2H-benzo[b][1,4]oxazin-8-yl)ethylamino)ethyl)-3-(3-(3-((4-(2-isopropylthiazole-4-carbonyl)-1-oxa-4,9-diazaspiro[5.5]undecan-9-yl)methyl)phenyl)propoxy)propanamide ditrifluoroacetate] | < 0.0501 nM | 316 nM | 0.9 |
| CCCCN(CCCNCCc1ccc(O)c2c1OCC(=O)N2)C(=O)CCOCCc1cccc(CN2CCC3(CC2)CN(C(=O)c2csc(CC)n2)CCO3)c1Cl [Example 80] | 0.631 nM | 63.1 nM | 0.5 |
| CCN(CCNCCc1ccc(O)c2c1OCC(=O)N2)C(=O)CCOCCc1cccc(CN2CCC3(CC2)CN(C(=O)c2csc(CC(C)C)n2)CCO3)c1F [Example 69, N-Ethyl-3-(2-fluoro-3-((4-(2-isobutylthiazole-4-carbonyl)-1-oxa-4,9-diazaspiro[5.5]undecan-9-yl)methyl)phenethoxy)-N-(2-(2-(5-hydroxy-3-oxo-3,4-dihydro-2H-benzo[b][1,4]oxazin-8-yl)ethylamino)ethyl)propanamide ditrifluoroacetate] | 0.251 nM | 31.6 nM | 0.8 |
| CC(C)c1nc(C(=O)N2CCOC3(CCN(Cc4cccc(CCCCOCCC(=O)N(CCNCCc5ccc(O)c6c5OCC(=O)N6)C5CCCCC5)c4)CC3)C2)cs1 [Example 58, N-Cyclohexyl-N-(2-(2-(5-hydroxy-3-oxo-3,4-dihydro-2H-benzo[b][1,4]oxazin-8-yl)ethylamino)ethyl)-3-(4-(3-((4-(2-Isopropylthiazole-4-carbonyl)-1-oxa-4,9-diazaspiro[5.5]undecan-9-yl)methyl)phenyl)butoxy)propanamide ditrifluoroacetate] | 0.0631 nM | 100 nM | 0.9 |
| CCCCN(CCNCCc1ccc(O)c2c1OCC(=O)N2)C(=O)CCOCCc1ccccc1OCCN1CCC2(CC1)CN(C(=O)c1csc(C(C)C)n1)CCO2 [Example 178, N-butyl-N-(2-(2-(5-hydroxy-3-oxo-3,4-dihydro-2H-benzo[b][1,4]oxazin-8-yl)ethylamino)ethyl)-3-(2-(2-(4-(2-isopropylthiazole-4-carbonyl)-1-oxa-4,9-diazaspiro[5.5]undecan-9-yl)ethoxy)phenethoxy)propanamide trifluoroacetate salt] | 12.6 nM | 501 nM | 1.2 |
| CC(C)c1ccc(C(=O)N2CCOC3(CCN(Cc4cccc(CCOCCC(=O)N(CCNCCc5ccc(O)c6c5OCC(=O)N6)C5CCCCC5)c4)CC3)C2)s1 [Example 90, N-Cyclohexyl-N-(2-(2-(5-hydroxy-3-oxo-3,4-dihydro-2H-benzo[b][1,4]oxazin-8-yl)ethylamino)ethyl)-3-(3-((4-(5-isopropylthiophene-2-carbonyl)-1-oxa-4,9-diazaspiro[5.5]undecan-9-yl)methyl)phenethoxy)propanamide] | 0.501 nM | 251 nM | 1.0 |
| CC(C)c1nc(C(=O)N2CCOC3(CCN(Cc4cccc(CCOCCC(=O)N(CCF)CCNCCc5ccc(O)c6c5OCC(=O)N6)c4F)CC3)C2)cs1 [Example 72, 3-(2-Fluoro-3-((4-(2-isopropylthiazole-4-carbonyl)-1-oxa-4,9-diazaspiro[5.5]undecan-9-yl)methyl)phenethoxy)-N-(2-fluoroethyl)-N-(2-(2-(5-hydroxy-3-oxo-3,4-dihydro-2H-benzo[b][1,4]oxazin-8-yl)ethylamino)ethyl)propanamide ditrifluoroacetate] | 0.126 nM | 31.6 nM | 0.9 |
| O=C1COc2c(CCNCCN(C(=O)CCOCCc3cccc(CN4CCC5(CC4)CN(C(=O)c4csc(-c6ccccc6)n4)CCO5)c3)C3CCCCC3)ccc(O)c2N1 [Example 82, N-Cyclohexyl-N-(2-(2-(5-hydroxy-3-oxo-3,4-dihydro-2H-benzo[b][1,4]oxazin-8-yl)ethylamino)ethyl)-3-(3-((4-(2-phenylthiazole-4-carbonyl)-1-oxa-4,9-diazaspiro[5.5]undecan-9-yl)methyl)phenethoxy)propanamide] | 1.26 nM | 501 nM | 1.0 |
| Cc1nc(C(=O)N2CCOC3(CCN(CCc4ccc(CCOCCC(=O)N(CCNCCc5ccc(O)c6c5OCC(=O)N6)C5CCCCCC5)cc4)CC3)C2)cs1 [Example 5, N-Cycloheptyl-N-(2-(2-(5-hydroxy-3-oxo-3,4-dihydro-2H-benzo[b][1,4]oxazin-8-yl)ethylamino)ethyl)-3-(4-(2-(4-(2-methylthiazole-4-carbonyl)-1-oxa-4,9-diazaspiro[5.5]undecan-9-yl)ethyl)phenethoxy)propanamide ditrifluoroacetate] | 0.2 nM | 20 nM | 0.9 |
| CCc1cc(C(=O)N2CCOC3(CCN(Cc4cccc(CCOCCC(=O)N(CC)CCNCCc5ccc(O)c6c5OCC(=O)N6)c4F)CC3)C2)cs1 [Example 24, N-Ethyl-3-(3-((4-(5-ethylthiophene-3-carbonyl)-1-oxa-4,9-diazaspiro[5.5]undecan-9-yl)methyl)-2-fluorophenethoxy)-N-(2-(2-(5-hydroxy-3-oxo-3,4-dihydro-2H-benzo[b][1,4]oxazin-8-yl)ethylamino)ethyl)propanamide ditrifluoroacetate] | 1 nM | 79.4 nM | 0.9 |
| CC(C)c1nc(C(=O)N2CCOC3(CCN(Cc4cccc(CCOCCC(=O)N(C)CCNCCc5ccc(O)c6[nH]c(=O)sc56)c4F)CC3)C2)cs1 [Example 13, 3-(2-Fluoro-3-((4-(2-isopropylthiazole-4-carbonyl)-1-oxa-4,9-diazaspiro[5.5]undecan-9-yl)methyl)phenethoxy)-N-(2-(2-(4-hydroxy-2-oxo-2,3-dihydrobenzo[d]thiazol-7-yl)ethylamino)ethyl)-N-methylpropanamide ditrifluoroacetate] | 0.631 nM | 25.1 nM | 0.8 |

Source: patent US8476265B2, “Compounds-801” (AstraZeneca AB, priority 2010, dated 2013)
